Patent US20250042875A1, “PESTICIDALLY ACTIVE PYRIDAZINONE COMPOUNDS” (SYNGENTA CROP PROTECTION AG, priority 2021, published 2025)

How the values were obtained:
Type in all cases: in vivo
Euschistus heros = test: Activity against Euschistus heros (neotropical brown stink bug), soybean leaves, N2 nymphs; settings: 120 h, application rate 200 ppm, 5 days after infestation, read-out: effect in at least one of the two categories (mortality or growth inhibition)
Protocol: Example B3: Activity Against Euschistus heros (Neotropical Brown Stink Bug)
Soybean leaves on agar in 24-well microtiter plates were sprayed with aqueous test solutions prepared from 10′000 ppm DMSO stock solutions. After drying the leaves were infested with N2 nymphs. The samples were assessed for mortality and growth inhibition in comparison to untreated samples 5 days after infestation.

Myzus persicae [1] = test: Activity against Myzus persicae (green peach aphid), feeding/contact activity; settings: 144 h, application rate 200 ppm, 6 days after infestation
Protocol: Example B5: Activity Against Myzus persicae (Green Peach Aphid). Feeding/Contact Activity
Sunflower leaf discs were placed onto agar in a 24-well microtiter plate and sprayed with aqueous test solutions prepared from 10′000 ppm DMSO stock solutions. After drying, the leaf discs were infested with an aphid population of mixed ages. The samples were assessed for mortality 6 days after infestation.

Plutella xylostella = test: Activity against Plutella xylostella (diamond back moth), artificial diet, eggs; settings: 192 h, application rate 200 ppm, 8 days after infestation, read-out: control in at least one of the two categories (mortality or growth inhibition)
Protocol: Example B7: Activity Against Plutella xylostella (Diamond Back Moth)
24-well microtiter plates with artificial diet were treated with aqueous test solutions prepared from 10′000 ppm DMSO stock solutions by pipetting. After drying, Plutella eggs were pipetted through a plastic stencil onto a gel blotting paper and the plate was closed with it. The samples were assessed for mortality and growth inhibition in comparison to untreated samples 8 days after infestation.

Spodoptera littoralis = test: Activity against Spodoptera littoralis (Egyptian cotton leaf worm), cotton leaf discs, L1 larvae; settings: foliar, 72 h, application rate 200 ppm, 3 days after infestation, read-out: control in at least one of the three categories (mortality, anti-feedant effect, or growth inhibition)
Protocol: Example B8: Activity Against Spodoptera littoralis (Egyptian Cotton Leaf Worm)
Cotton leaf discs were placed onto agar in 24-well microtiter plates and sprayed with aqueous test solutions prepared from 10′000 ppm DMSO stock solutions. After drying the leaf discs were infested with five L1 larvae. The samples were assessed for mortality, anti-feeding effect, and growth inhibition in comparison to untreated samples 3 days after infestation. Control of Spodoptera littoralis by a test sample is given when at least one of the categories mortality, anti-feedant effect, and growth inhibition is higher than the untreated sample.

Chilo suppressalis = test: Activity against Chilo suppressalis (striped rice stemborer), artificial diet, L2 larvae; settings: 144 h, application rate 200 ppm, 6 days after infestation, read-out: control in at least one of the three categories (mortality, anti-feedant effect, or growth inhibition)
Protocol: Example B1: Activity Against Chilo suppressalis (Striped Rice Stemborer)
24-well microtiter plates with artificial diet were treated with aqueous test solutions prepared from 10′000 ppm DMSO stock solutions by pipetting. After drying, the plates were infested with L2 larvae (6-8 per well). The samples were assessed for mortality, anti-feeding effect, and growth inhibition in comparison to untreated samples 6 days after infestation. Control of Chilo suppressalis by a test sample is given when at least one of the categories mortality, anti-feedant effect, and growth inhibition is higher than the untreated sample.

Myzus persicae [2] = test: Activity against Myzus persicae (green peach aphid), intrinsic activity; settings: 120 h, test rate 12 ppm, 5 days after infestation
From the text: Example B6: Activity Against Myzus persicae (Green Peach Aphid). Intrinsic Activity
Test compounds prepared from 10′000 ppm DMSO stock solutions were applied by pipette into 24-well microtiter plates and mixed with sucrose solution. The plates were closed with a stretched Parafilm. A plastic stencil with 24 holes was placed onto the plate and infested pea seedlings were placed directly on the Parafilm. The infested plate was closed with a gel blotting paper and another plastic stencil and then turned upside down. The samples were assessed for mortality 5 days after infestation.

Diabrotica balteata = test: Activity against Diabrotica balteata (corn root worm), maize sprouts, L2 larvae; settings: 96 h, application rate 200 ppm, 4 days after infestation, read-out: control in at least one of the two categories (mortality or growth inhibition)
Protocol: Example B2: Activity Against Diabrotica Balteata (Corn Root Worm)
Maize sprouts placed onto an agar layer in 24-well microtiter plates were treated with aqueous test solutions prepared from 10′000 ppm DMSO stock solutions by spraying. After drying, the plates were infested with L2 larvae (6 to 10 per well). The samples were assessed for mortality and growth inhibition in comparison to untreated samples 4 days after infestation.

C[C@H](NC(=O)c1cc(C(F)(F)F)cc(C(F)(F)F)c1)c1ncnn1-c1ccc(=O)n(C)n1 [P1, N-[(1S)-1-[2-(1-methyl-6-oxo-pyridazin-3-yl)-1,2,4-triazol-3-yl]ethyl]-3,5-bis(trifluoromethyl)benzamide]
≥ 80%: percent effect (mortality or growth inhibition) at 200 ppm (Euschistus heros) | mortality at 200 ppm (Myzus persicae [1]) | percent control (mortality or growth inhibition) at 200 ppm (Plutella xylostella) | percent control (mortality, anti-feedant effect or growth inhibition) at 200 ppm (Spodoptera littoralis) | percent control (mortality, anti-feedant effect or growth inhibition) at 200 ppm (Chilo suppressalis) | mortality at 12 ppm (Myzus persicae [2]) | percent control (mortality or growth inhibition) at 200 ppm (Diabrotica balteata)

CC(NC(=O)c1cc(Cl)cc(C(F)(F)F)c1)c1nccnc1-c1ccc(=O)n(C)n1 (centres unmarked) [P7, 3-chloro-N-[1-[3-(1-methyl-6-oxo-pyridazin-3-yl)pyrazin-2-yl]ethyl]-5-(trifluoromethyl)benzamide]
≥ 80%: mortality at 200 ppm (Myzus persicae [1]) | percent control (mortality or growth inhibition) at 200 ppm (Plutella xylostella) | percent control (mortality, anti-feedant effect or growth inhibition) at 200 ppm (Spodoptera littoralis) | percent control (mortality, anti-feedant effect or growth inhibition) at 200 ppm (Chilo suppressalis) | mortality at 12 ppm (Myzus persicae [2]) | percent control (mortality or growth inhibition) at 200 ppm (Diabrotica balteata)

C[C@H](NC(=O)c1cc(C(F)(F)F)cc(S(=O)(=O)C(F)(F)F)c1)c1ncnn1-c1ccc(=O)n(C)n1 [P8, N-[(1S)-1-[2-(1-methyl-6-oxo-pyridazin-3-yl)-1,2,4-triazol-3-yl]ethyl]-3-(trifluoromethyl)-5-(trifluoromethylsulfonyl) benzamide]
≥ 80%: percent effect (mortality or growth inhibition) at 200 ppm (Euschistus heros) | mortality at 200 ppm (Myzus persicae [1]) | percent control (mortality or growth inhibition) at 200 ppm (Plutella xylostella) | percent control (mortality, anti-feedant effect or growth inhibition) at 200 ppm (Spodoptera littoralis) | percent control (mortality, anti-feedant effect or growth inhibition) at 200 ppm (Chilo suppressalis) | mortality at 12 ppm (Myzus persicae [2]) | percent control (mortality or growth inhibition) at 200 ppm (Diabrotica balteata)

CC(NC(=O)c1cc(Br)cc(C(F)(F)F)c1)c1nccnc1-c1ccc(=O)n(C)n1 (centres unmarked) [P10, 3-bromo-N-[1-[3-(1-methyl-6-oxo-pyridazin-3-yl)pyrazin-2-yl]ethyl]-5-(trifluoromethyl)benzamide]
≥ 80%: mortality at 200 ppm (Myzus persicae [1]) | percent control (mortality or growth inhibition) at 200 ppm (Plutella xylostella) | percent control (mortality, anti-feedant effect or growth inhibition) at 200 ppm (Spodoptera littoralis) | percent control (mortality, anti-feedant effect or growth inhibition) at 200 ppm (Chilo suppressalis) | mortality at 12 ppm (Myzus persicae [2]) | percent control (mortality or growth inhibition) at 200 ppm (Diabrotica balteata)

CC(NC(=O)c1cc(Cl)cc(OC(F)(F)F)c1)c1nccnc1-c1ccc(=O)n(C)n1 (centres unmarked) [P11, 3-chloro-N-[1-[3-(1-methyl-6-oxopyridazin-3-yl)pyrazin-2-yl]ethyl]-5-(trifluoromethoxy) benzamide]
≥ 80%: percent effect (mortality or growth inhibition) at 200 ppm (Euschistus heros) | mortality at 200 ppm (Myzus persicae [1]) | percent control (mortality or growth inhibition) at 200 ppm (Plutella xylostella) | percent control (mortality, anti-feedant effect or growth inhibition) at 200 ppm (Spodoptera littoralis) | percent control (mortality, anti-feedant effect or growth inhibition) at 200 ppm (Chilo suppressalis) | mortality at 12 ppm (Myzus persicae [2]) | percent control (mortality or growth inhibition) at 200 ppm (Diabrotica balteata)

CC(NC(=O)c1cc(OC(F)F)cc(C(F)(F)F)c1)c1nccnc1-c1ccc(=O)n(C)n1 (centres unmarked) [P14, 3-(difluoromethoxy)-N-[1-[3-(1-methyl-6-oxo-pyridazin-3-yl)pyrazin-2-yl]ethyl]-5-(trifluoromethyl)benzamide]
≥ 80%: percent effect (mortality or growth inhibition) at 200 ppm (Euschistus heros) | mortality at 200 ppm (Myzus persicae [1]) | percent control (mortality or growth inhibition) at 200 ppm (Plutella xylostella) | percent control (mortality, anti-feedant effect or growth inhibition) at 200 ppm (Spodoptera littoralis) | percent control (mortality, anti-feedant effect or growth inhibition) at 200 ppm (Chilo suppressalis) | mortality at 12 ppm (Myzus persicae [2]) | percent control (mortality or growth inhibition) at 200 ppm (Diabrotica balteata)

CCn1nc(-n2ncnc2[C@H](C)NC(=O)c2cc(Cl)cc(S(=O)(=O)C(F)(F)F)c2)ccc1=O [P17, 3-chloro-N-[(1S)-1-[2-(1-ethyl-6-oxo-pyridazin-3-yl)-1,2,4-triazol-3-yl]ethyl]-5-(trifluoromethylsulfonyl)benzamide]
≥ 80%: mortality at 200 ppm (Myzus persicae [1]) | percent control (mortality or growth inhibition) at 200 ppm (Plutella xylostella) | percent control (mortality, anti-feedant effect or growth inhibition) at 200 ppm (Spodoptera littoralis) | percent control (mortality, anti-feedant effect or growth inhibition) at 200 ppm (Chilo suppressalis) | mortality at 12 ppm (Myzus persicae [2]) | percent control (mortality or growth inhibition) at 200 ppm (Diabrotica balteata)

C[C@@H](c1ncnn1C1=NN(C)C(=O)CC1)N(C)C(=O)c1cc(Cl)cc(S(=O)(=O)C(F)(F)F)c1 [P22, 3-chloro-N-methyl-N-[(1S)-1-[2-(1-methyl-6-oxo-4,5-dihydropyridazin-3-yl)-1,2,4-triazol-3-yl]ethyl]-5-(trifluoromethylsulfonyl) benzamide]
≥ 80%: mortality at 200 ppm (Myzus persicae [1]) | percent control (mortality or growth inhibition) at 200 ppm (Plutella xylostella) | percent control (mortality, anti-feedant effect or growth inhibition) at 200 ppm (Spodoptera littoralis) | percent control (mortality, anti-feedant effect or growth inhibition) at 200 ppm (Chilo suppressalis) | mortality at 12 ppm (Myzus persicae [2]) | percent control (mortality or growth inhibition) at 200 ppm (Diabrotica balteata)

CC(NC(=O)c1cc(C(F)(F)F)cc(C2(C#N)CC2)c1)c1nccnc1-c1ccc(=O)n(C)n1 (centres unmarked) [P24, 3-(1-cyanocyclopropyl)-N-[1-[3-(1-methyl-6-oxo-pyridazin-3-yl)pyrazin-2-yl]ethyl]-5-(trifluoromethyl) benzamide]
≥ 80%: mortality at 200 ppm (Myzus persicae [1]) | percent control (mortality or growth inhibition) at 200 ppm (Plutella xylostella) | percent control (mortality, anti-feedant effect or growth inhibition) at 200 ppm (Spodoptera littoralis) | percent control (mortality, anti-feedant effect or growth inhibition) at 200 ppm (Chilo suppressalis) | mortality at 12 ppm (Myzus persicae [2])

CC(NC(=O)c1cc(Cl)nc(C2(C#N)CC2)c1)c1nccnc1-c1ccc(=O)n(C)n1 (centres unmarked) [P34, 2-chloro-6-(1-cyanocyclopropyl)-N-[1-[3-(1-methyl-6-oxo-pyridazin-3-yl)pyrazin-2-yl]ethyl]pyridine-4-carboxamide]
≥ 80%: mortality at 200 ppm (Myzus persicae [1]) | percent control (mortality or growth inhibition) at 200 ppm (Plutella xylostella) | percent control (mortality, anti-feedant effect or growth inhibition) at 200 ppm (Spodoptera littoralis) | percent control (mortality, anti-feedant effect or growth inhibition) at 200 ppm (Chilo suppressalis) | mortality at 12 ppm (Myzus persicae [2])

C[C@H](NC(=O)c1cc(Cl)nc(C2(C#N)CC2)c1)c1ncnn1-c1ccc(=O)n(C)n1 [P35, 2-chloro-6-(1-cyanocyclopropyl)-N-[(1S)-1-[2-(1-methyl-6-oxo-pyridazin-3-yl)-1,2,4-triazol-3-yl]ethyl]pyridine-4-carboxamide]
≥ 80%: percent effect (mortality or growth inhibition) at 200 ppm (Euschistus heros) | mortality at 200 ppm (Myzus persicae [1]) | percent control (mortality or growth inhibition) at 200 ppm (Plutella xylostella) | percent control (mortality, anti-feedant effect or growth inhibition) at 200 ppm (Chilo suppressalis) | mortality at 12 ppm (Myzus persicae [2])

CC(NC(=O)c1cc(OC(F)F)cc(C2(C#N)CC2)c1)c1nccnc1-c1ccc(=O)n(C)n1 (centres unmarked) [P44, 3-(1-cyanocyclopropyl)-5-(difluoromethoxy)-N-[1-[3-(1-methyl-6-oxo-pyridazin-3-yl)pyrazin-2-yl]ethyl]benzamide]
≥ 80%: percent effect (mortality or growth inhibition) at 200 ppm (Euschistus heros) | mortality at 200 ppm (Myzus persicae [1]) | percent control (mortality or growth inhibition) at 200 ppm (Plutella xylostella) | percent control (mortality, anti-feedant effect or growth inhibition) at 200 ppm (Spodoptera littoralis) | percent control (mortality, anti-feedant effect or growth inhibition) at 200 ppm (Chilo suppressalis) | mortality at 12 ppm (Myzus persicae [2])

C[C@H](NC(=O)c1cc(OC(F)F)cc(C2(C#N)CC2)c1)c1ncnn1-c1ccc(=O)n(C)n1 [P45, 3-(1-cyanocyclopropyl)-5-(difluoromethoxy)-N-[(1S)-1-[2-(1-methyl-6-oxo-pyridazin-3-yl)-1,2,4-triazol-3-yl]ethyl]benzamide]
≥ 80%: percent effect (mortality or growth inhibition) at 200 ppm (Euschistus heros) | mortality at 200 ppm (Myzus persicae [1]) | percent control (mortality, anti-feedant effect or growth inhibition) at 200 ppm (Chilo suppressalis) | mortality at 12 ppm (Myzus persicae [2])

CC(NC(=O)c1cc(Br)cc(C(F)(F)F)c1)c1nccnc1-c1cn(CC(F)F)c(=O)cn1 (centres unmarked) [P49, 3-bromo-N-[1-[3-[4-(2,2-difluoroethyl)-5-oxo-pyrazin-2-yl]pyrazin-2-yl]ethyl]-5-(trifluoromethyl)benzamide]
≥ 80%: mortality at 200 ppm (Myzus persicae [1]) | percent control (mortality or growth inhibition) at 200 ppm (Plutella xylostella) | percent control (mortality, anti-feedant effect or growth inhibition) at 200 ppm (Spodoptera littoralis) | percent control (mortality, anti-feedant effect or growth inhibition) at 200 ppm (Chilo suppressalis) | mortality at 12 ppm (Myzus persicae [2]) | percent control (mortality or growth inhibition) at 200 ppm (Diabrotica balteata)
